The results in this text go back to patent US8865748B2, “Compounds and compositions for stabilizing hypoxia inducible factor-2 alpha as a method for treating cancer” (Akebia Therapeutics Inc., priority 2011, dated 2014).

In test [1] the test system is VEGF. The test is described as follows: VEGF production by human peripheral blood monocytes (ELISA, real-time PCR). In kind it is cell-based. The conditions noted are these: FIG. 11C. The procedure:
(§1) Human peripheral blood mononuclear cells (PBMCs) were isolated from fresh peripheral blood leukocyte source packs (American Red Cross, Columbus Ohio) by density gradient centrifugation over Lymphocyte Separation Medium (Cellgro). Monocytes were purified from total PBMCs by layering over FBS. Monocytes were cultured in endotoxin-free RPMI-1640 supplemented with 1% fetal bovine serum (FBS), 0.1% human serum albumin (HSA), and 10 μg/mL of the endotoxin inhibitor polymyxin B. In some experiments, freshly isolated monocytes were differentiated into macrophages by three-day culture in media containing 10% FBS, 1% PSA (penicillin G sodium, streptomycin sulfate, and amphotericin B), and 20 ng/mL M-CSF. Macrophages were serum-starved for 2 hours prior to stimulation. Monocytes or monocyte-derived macrophages were treated for 24 hours with 10 ng/mL GM-CSF, 10 μM disclosed HIF-2α stabilizer, or an equivalent volume of the vehicle controls (PBS or DMSO, respectively). Cell-free culture supernatants were harvested and analyzed for VEGF or sVEGFR-1 by ELISA (R&D Systems).
(§2) Human monocytes were left untreated or were stimulated with 100 ng/mL GM-CSF at normoxia or at 0.5% O2. At various time-points, cells were harvested in Trizol reagent (Invitrogen) and RNA was extracted in chloroform and then purified using the RNeasy Minikit (Qiagen). In murine studies, organs harvested at the time of euthanasia were flash-frozen in liquid nitrogen, pulverized in liquid nitrogen, and then dissolved in Trizol. cDNA was generated from 1 μg of RNA using the Superscript First Strand Synthesis System (Invitrogen) and used for real-time PCR using previously described primers and SYBR Green PCR Master Mix (Applied Biosciences), according to the manufacturer's instructions. Data were analyzed according to the comparative threshold method and normalized against the β-actin internal control transcript. Results are semi-quantitative and represent the fold difference in transcript levels in a particular sample as compared with levels in untreated cells from the same donor.
VEGF protein was undetectable in the supernatants of GM-CSF-stimulated monocytes, due to neutralization of VEGF by sVEGFR-1 (FIG. 11C).
Since monocyte production of VEGF was dependent on HIF-1α, the inventors herein determined whether selective stabilization of HIF-1α via inhibition of PHD2 would increase monocyte production of VEGF but not sVEGFR-1. In order to make such determination, human peripheral blood monocytes were stimulated with GM-CSF in the presence of a selective inhibitor of PHD2 which results in the stabilization of HIF-1α.
(In an ELISA, binding on a coated surface is turned into a signal by an enzyme label.)

The subject of another test is sVEGFR-1. The test is described as follows: sVEGFR-1 production by human peripheral blood monocytes (ELISA, real-time PCR). It counts as cell-based. The following applies: GM-CSF stimulation; FIG. 11D. The procedure: as §1
Human monocytes were left untreated or were stimulated with 100 ng/mL GM-CSF at normoxia or at 0.5% O2. At various time-points, cells were harvested in Trizol reagent (Invitrogen) and RNA was extracted in chloroform and then purified using the RNeasy Minikit (Qiagen). […] Data were analyzed according to the comparative threshold method and normalized against the β-actin internal control transcript. Results are semi-quantitative and represent the fold difference in transcript levels in a particular sample as compared with levels in untreated cells from the same donor.
Since monocyte production of VEGF was dependent on HIF-1α, the inventors herein determined whether selective stabilization of HIF-1α via inhibition of PHD2 would increase monocyte production of VEGF but not sVEGFR-1. […]

Test [2] concerns VEGF. In words: VEGF mRNA within B16F10 tumors (real-time PCR). It counts as in vivo, mice. The conditions noted are these: FIG. 13B; p=0.490. The procedure:
as §2
6-8-week-old C57BL/6 mice were injected with 1×10^5 B16F10 murine melanoma cells murine subcutaneously on the left flank. […] Tumor diameters were measured 3 times per week with calipers, and tumor volumes will be calculated as follows: Tumor volume=0.5×[(large diameter)×(small diameter)^2]. […]
(Real-time PCR tracks product formation cycle by cycle.)

For another test, the system named is B16F10 melanoma tumors. The test is described as follows: Murine melanoma tumor model (B16F10 in C57BL/6 mice). It counts as in vivo. As for the experimental part:
Mice were injected with 1×10^5 B16F10 murine melanoma cells murine subcutaneously on the left flank. Once tumors become palpable (approximately 5 days), mice were randomly allocated to receive treatment with either: 20% polyethylene glycol (PEG) in 5% […] (vehicle control for the disclosed HIF-2α stabilizer) and PBS (vehicle control for GM-CSF), 20% PEG and GM-CSF (100 ng per mouse in a 50 μL volume), the disclosed HIF-2α stabilizer (17.5 mg/kg in a 100 μL volume) and PBS, or the disclosed HIF-2α stabilizer and GM-CSF (same doses). The PBS and GM-CSF were administered intratumorally, while the 20% PEG and the disclosed HIF-2α stabilizer were administered intraperitoneally. Mice were treated 3 times per week until tumors reached a size of 20 mm in any dimension (approximately 2.5 weeks), at which point mice were euthanized, in accordance with institutional policy. Tumor diameters were measured 3 times per week with calipers, and tumor volumes were calculated as follows: Tumor volume=0.5×[(large diameter)×(small diameter)^2].
6-8-week-old C57BL/6 mice were injected with 1×10^5 B16F10 murine melanoma cells murine subcutaneously on the left flank. Once tumors become palpable (approximately 5 days), mice were randomly allocated to receive treatment with either: 20% PEG-400 in 5% sucrose (vehicle for disclosed HIF-2α stabilizer) and PBS (vehicle for GM-CSF), 20% PEG-400 and GM-CSF (100 ng per mouse in a 50 μL volume), disclosed HIF-2α stabilizer (17.5 mg/kg mouse weight in a 100 μL volume) and PBS, or the disclosed HIF-2α stabilizer and GM-CSF (same concentrations). The disclosed HIF-2α stabilizer (or the vehicle control) was administered intraperitoneally, while GM-CSF (or the vehicle control) was administered intratumorally. Mice were treated […] 3 times per week until tumors reached a size of 20 mm in any dimension (approximately 2.5 weeks), at which point mice were be euthanized, in accordance with institutional policy. Tumor diameters were measured 3 times per week with calipers, and tumor volumes will be calculated as follows: Tumor volume=0.5×[(large diameter)×(small diameter)^2]. For experiments analyzing the effect of neutralizing sVEGFR-1 in combination with disclosed HIF-2α stabilizer treatment, mice were treated intraperitoneally 3×/week with either disclosed HIF-2α stabilizer or vehicle control, and intratumorally with either 4 μg anti-VEGFR-1 neutralizing antibody (R&D Systems) or 4 μg polyclonal goat IgG isotype control (Santa Cruz Biotechnology) in a 50 μL volume. All protocols were approved by the Ohio State University Animal Care and Use Committee, and mice were treated in accordance with institutional guidelines for animal care.
The ANOVA test was used to compare independent measurements between multiple treatment groups. The data was log-transformed to normalize the variance across groups. P-values were adjusted using the Holm's procedure to conserve the type I error at 0.05 due to the multiple comparisons. For tumor growth data, changes in tumor volume over time were assessed via a longitudinal model. Tumor values were log-transformed, and estimated slopes (changes in tumor volume over time) were calculated with 95% confidence intervals. Estimated differences in tumor volume were calculated by a random-effects regression of the longitudinal data. For all analyses, p≦0.05 was considered statistically significant.
To confirm that the modulation of tumor growth and angiogenesis was due to sVEGFR-1 production in response to the disclosed HIF-2α stabilizer, mice were treated with the disclosed HIF-2α stabilizer in the presence or absence of an sVEGFR-1 neutralizing Ab.
6-8-week-old C57BL/6 mice or SCID mice were injected with 1×10^5 B16F10 murine melanoma cells or 1×10^6 A375 human melanoma cells, respectively, subcutaneously on the left flank. […]

Take “GM-CSF: granulocyte-macrophage colony-stimulating factor”: the “VEGF production, transcript levels by real-time PCR” value in the test on VEGF [1] (GM-CSF stimulation) was “increased”. The “VEGF protein in supernatants” value in the test on VEGF [1] (GM-CSF-stimulated monocytes, ELISA detects free VEGF only) is recorded as “undetectable”. Besides, in the test on sVEGFR-1, the “monocyte production of sVEGFR-1” value is “induced”. For the same substance, the “levels of intratumoral VEGF over vehicle control-treated mice” value in the test with VEGF [2] is listed as “failed to increase”. The “tumor growth (tumor volume)” value with B16F10 melanoma tumors (FIG. 3, stabilizer 17 mg/kg I.P., GM-CSF 100 ng per mouse I.T., 3 times per week, vs. PBS control) is “reduction in tumor volume”. Also, in the test with B16F10 melanoma tumors (FIG. 4, stabilizer 17 mg/kg delivered I.P. in all cases, no control group), the “tumor volume reduction, GM-CSF administered I.T. vs. I.P.” value is on record as “greater reduction of tumor volume”. The “average tumor volumes vs. vehicle controls” value in the test with B16F10 melanoma tumors (day 16 of treatment, GM-CSF 100 ng/mouse intratumoral or stabilizer 17.5 mg/kg intraperitoneal, 3x/week, each p<0.001) was “significantly smaller”.
